Results from patent publication US9617244B2, “Antibacterial quinoline derivatives” (JANSSEN PHARMACEUTICA NV, priority 2012, dated 2017).
≈ marks a conversion by molar mass, not a printed value.

Tests used:
[1] = system: Staphylococcus aureus (ATCC29213); assay: In-vitro anti-bacterial activity, microtitre plate assay, IC90 determination (non-mycobacterial strains); format: cell-based; details: 90% inhibitory concentration for bacterial growth, resazurin fluorescence; for IC90 STA B29213: 24 hours
Outline: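 Inoculum of about 100 TCID50 (10–60 CFU/well) in Mueller-Hinton broth, serial five-fold compound dilutions, 24 h at 37 °C in air. Growth read by resazurin fluorescence (ex 530/em 590 nm); IC90 in μg/ml as 90% growth inhibition.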

[2] = system: Mycobacterium smegmatis (ATCC607); assay: In-vitro anti-bacterial activity against strain M. Smegmatis ATCC607; format: cell-based; details: 90% inhibitory concentration for bacterial growth, Alamar Blue fluorescence; for IC90 MSM 607: 48 hours
Outline: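 Serial five-fold compound dilutions in BSA-supplemented wells, inoculated with ~250 CFU/well in Mueller-Hinton broth, incubated 48 h at 37 °C, 5% CO2. Growth read by Alamar Blue fluorescence (ex 530/em 590 nm); IC90 in μg/ml.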

SMILES	IC90 STA B29213 [1] [µg/mL]	IC90 ([2]; Mycolicibacterium smegmatis, ATCC607, 48 h, read-out: IC90 MSM 607) [µg/mL]	IC90 MSM 607 [2] [µg/mL]	IC90 ([1]; Staphylococcus aureus, ATCC29213, 24 h, read-out: IC90 STA B29213) [µg/mL]
CSc1ccc2[nH]c(=O)c(C(c3ccc(Cl)cc3)C3(O)CCNC(Cc4ccc(F)cc4)C3)cc2c1 (centres unmarked) [Compound 281]	3.53 (≈ 6.75 µM)	7.03 (≈ 13.4 µM)	–	–
CSc1ccc2[nH]c(=O)c(C(c3ccc(Cl)cc3)C3(O)CCNC(Cc4ccc(F)cc4)C3)cc2c1 (centres unmarked) [Compound 282]	7.02 (≈ 13.4 µM)	–	7.02 (≈ 13.4 µM)	–
COc1nc2ccc(SC)cc2cc1C(c1ccc(Cl)cc1)C1(O)CCNCC1Cc1cccc(F)c1 (centres unmarked) [Compound 284]	4.25 (≈ 7.91 µM)	–	3.38 (≈ 6.29 µM)	–
COc1nc2ccc(SC)cc2cc1C(c1ccc(Cl)cc1)C1(O)CCNCC1Cc1cccc(F)c1 (centres unmarked) [Compound 285]	>13.49	–	>13.49	–
COc1nc2ccc(SC)cc2cc1C(c1ccc(Cl)cc1)C1(O)CCNCC1Cc1cccc(F)c1 (centres unmarked) [Compound 286]	4.22 (≈ 7.86 µM)	–	2.12 (≈ 3.95 µM)	–
COc1nc2ccc(SC)cc2cc1C(c1ccc(Cl)cc1)C1(O)CCNC(CC2CCCCC2)C1 (centres unmarked) [Compound 288]	4.29 (≈ 8.17 µM)	–	3.41 (≈ 6.49 µM)	–
COc1nc2ccc(SC)cc2cc1C(c1ccc(Cl)cc1)C1(O)CCNC(CC2CCCCC2)C1 (centres unmarked) [Compound 289]	4.23 (≈ 8.05 µM)	–	3.36 (≈ 6.4 µM)	–
COc1nc2ccc(SC)cc2cc1C(c1ccc(Cl)cc1)C1(O)CCNC(CC2CCCCC2)C1 (centres unmarked) [Compound 290]	2.35 (≈ 4.47 µM)	–	2.63 (≈ 5.01 µM)	–
COc1nc2ccc(S(C)(=O)=O)cc2cc1C(c1ccc(Cl)cc1)C1(O)CCNCC1Cc1cccc(F)c1 (centres unmarked) [Compound 292]	7.16 (≈ 12.6 µM)	–	5.69 (≈ 10 µM)	–
COc1nc2ccc(S(C)(=O)=O)cc2cc1C(c1ccc(Cl)cc1)C1(O)CCNCC1Cc1cccc(F)c1 (centres unmarked) [Compound 293]	7.16 (≈ 12.6 µM)	–	7.16 (≈ 12.6 µM)	–
COc1nc2ccc(S(C)(=O)=O)cc2cc1C(c1ccc(Cl)cc1)C1(O)CCNCC1Cc1cccc(F)c1 (centres unmarked) [Compound 294]	11.36 (≈ 20 µM)	–	14.30 (≈ 25.1 µM)	–
CSc1ccc2[nH]c(=O)c(C(c3ccc(Cl)cc3)C3(O)CCNC(CC4CCCCC4)C3)cc2c1 (centres unmarked) [Compound 295]	3.43 (≈ 6.71 µM)	–	3.43 (≈ 6.71 µM)	–
CSc1ccc2[nH]c(=O)c(C(c3ccc(Cl)cc3)C3(O)CCNC(CC4CCCCC4)C3)cc2c1 (centres unmarked) [Compound 296]	3.43 (≈ 6.71 µM)	–	6.85 (≈ 13.4 µM)	–
CSc1ccc2[nH]c(=O)c(C(c3ccc(Cl)cc3)C3(O)CCNC(CC4CCCCC4)C3)cc2c1 (centres unmarked) [Compound 297]	3.43 (≈ 6.71 µM)	–	13.65 (≈ 26.7 µM)	–

Second part, the compound after the results:

IC90 STA B29213 [1] [µg/mL]	IC90 ([2]; Mycolicibacterium smegmatis, ATCC607, 48 h, read-out: IC90 MSM 607) [µg/mL]	IC90 MSM 607 [2] [µg/mL]	IC90 ([1]; Staphylococcus aureus, ATCC29213, 24 h, read-out: IC90 STA B29213) [µg/mL]	SMILES
6.88 (≈ 13.5 µM)	–	6.88 (≈ 13.5 µM)	–	CSc1ccc2[nH]c(=O)c(C(c3ccc(Cl)cc3)C3(O)CCNC(CC4CCCCC4)C3)cc2c1 (centres unmarked) [Compound 298]
–	–	5.47 (≈ 10.7 µM)	6.88 (≈ 13.5 µM)	Cc1cc(F)ccc1C1CC(O)(C(c2ccc(Cl)cc2)c2cc3cc(Cl)ccc3[nH]c2=O)CCN1 (centres unmarked) [Compound 303]
3.45 (≈ 6.75 µM)	–	1.73 (≈ 3.38 µM)	–	Cc1cc(F)ccc1C1CC(O)(C(c2ccc(Cl)cc2)c2cc3cc(Cl)ccc3[nH]c2=O)CCN1 (centres unmarked) [Compound 304]
18.76 (≈ 32 µM)	–	18.76 (≈ 32 µM)	–	COc1nc2ccc(S(C)(=O)=O)cc2cc1C(c1ccc(Cl)cc1)C1(O)CCNC(Cc2ccc(F)cc2F)C1 (centres unmarked) [Compound 305]
4.70 (≈ 8.01 µM)	–	4.70 (≈ 8.01 µM)	–	COc1nc2ccc(S(C)(=O)=O)cc2cc1C(c1ccc(Cl)cc1)C1(O)CCNC(Cc2ccc(F)cc2F)C1 (centres unmarked) [Compound 306]
>15.12	–	>15.12	–	CS(=O)(=O)c1ccc2[nH]c(=O)c(C(c3cccc(Cl)c3)C3(O)CCNC(Cc4ccc(F)cc4F)C3)cc2c1 (centres unmarked) [Compound 307]
7.65 (≈ 13.3 µM)	–	6.08 (≈ 10.6 µM)	–	CS(=O)(=O)c1ccc2[nH]c(=O)c(C(c3cccc(Cl)c3)C3(O)CCNC(Cc4ccc(F)cc4F)C3)cc2c1 (centres unmarked) [Compound 308]
14.50 (≈ 26.8 µM)	–	11.52 (≈ 21.3 µM)	–	CSc1ccc2[nH]c(=O)c(C(c3cccc(Cl)c3)C3(O)CCNC(Cc4ccc(F)cc4F)C3)cc2c1 (centres unmarked) [Compound 309]
3.62 (≈ 6.69 µM)	–	3.62 (≈ 6.69 µM)	–	CSc1ccc2[nH]c(=O)c(C(c3cccc(Cl)c3)C3(O)CCNC(Cc4ccc(F)cc4F)C3)cc2c1 (centres unmarked) [Compound 310]
7.24 (≈ 13.4 µM)	–	3.63 (≈ 6.71 µM)	–	CSc1ccc2[nH]c(=O)c(C(c3cccc(Cl)c3)C3(O)CCNC(Cc4ccc(F)cc4F)C3)cc2c1 (centres unmarked) [Compound 311]
3.62 (≈ 6.69 µM)	–	3.62 (≈ 6.69 µM)	–	CSc1ccc2[nH]c(=O)c(C(c3cccc(Cl)c3)C3(O)CCNC(Cc4ccc(F)cc4F)C3)cc2c1 (centres unmarked) [Compound 312]
